Measurements from publication PMC4159592 (Chembiochem, 2014).

Target: CYP126 (Mycobacterium tuberculosis, UniProt P9WPN9)
Test: biochemical
Type: binding

Sequence of CYP126 (P9WPN9 whole entry): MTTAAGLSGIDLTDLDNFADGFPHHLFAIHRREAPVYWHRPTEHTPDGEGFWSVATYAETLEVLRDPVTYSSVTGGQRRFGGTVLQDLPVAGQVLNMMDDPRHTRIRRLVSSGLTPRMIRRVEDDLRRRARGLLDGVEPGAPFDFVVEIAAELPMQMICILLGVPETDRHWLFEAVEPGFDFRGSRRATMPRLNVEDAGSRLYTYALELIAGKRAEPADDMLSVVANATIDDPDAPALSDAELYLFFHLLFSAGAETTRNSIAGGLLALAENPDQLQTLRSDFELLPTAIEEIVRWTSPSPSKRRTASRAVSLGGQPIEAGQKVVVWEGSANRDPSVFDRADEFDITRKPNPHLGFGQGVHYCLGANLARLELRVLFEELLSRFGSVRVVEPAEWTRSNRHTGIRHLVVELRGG

Oc1c(Cl)c(Cl)c(Cl)c(Cl)c1Cl [TB23, pentachlorophenol]
Kd: 150 µM
